Assay results: US20260210939A1, “MODIFIED OLFACTORY RECEPTORS” (GIVAUDAN SA, priority 2022, published 2026)
Marks after values point to notes of the source that are not given here.

Key:
Format in all cases: cell-based
OR2AP1 = target: T1, OR2AP1 (Homo sapiens, UniProt Q8NGE2); assay: Dose-response test of single lactones on OR2AP1
T1 construct: expressed in transfected cells; transient transfection of pcDNA3.1(+) OR plasmid
T1 sequence (Q8NGE2 with tags, fused parts or gaps limits assumed): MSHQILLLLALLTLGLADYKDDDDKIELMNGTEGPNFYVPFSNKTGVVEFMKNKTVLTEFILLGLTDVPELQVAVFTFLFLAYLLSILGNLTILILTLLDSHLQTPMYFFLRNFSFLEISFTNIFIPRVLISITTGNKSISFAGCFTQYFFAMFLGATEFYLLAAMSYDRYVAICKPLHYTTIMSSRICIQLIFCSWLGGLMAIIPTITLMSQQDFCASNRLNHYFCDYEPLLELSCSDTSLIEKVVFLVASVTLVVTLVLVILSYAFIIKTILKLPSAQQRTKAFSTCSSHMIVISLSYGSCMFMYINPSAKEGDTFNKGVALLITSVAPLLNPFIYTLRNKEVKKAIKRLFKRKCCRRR
Protocol: (§1) In a subsequent de-convultion experiment, the single ingredients were tested in a dose-response test on all the identified OR. […] Thus, OR2AP1 and OR2J2 are particularly strongly activated by the long-chain dodecalactone gamma, while OR10A3 is very sensitive to several longer chain lactones. […] Among the five OR, OR10A3 is the most sensitive.

OR10A3 = target: T2, OR10A3 (Homo sapiens, UniProt P58181); assay: Dose-response test of single lactones on OR10A3 (luciferase)
T2 construct: Class II OR library members with modified C-terminal domains; expressed in transfected cells
T2 sequence (P58181 with tags, fused parts or gaps): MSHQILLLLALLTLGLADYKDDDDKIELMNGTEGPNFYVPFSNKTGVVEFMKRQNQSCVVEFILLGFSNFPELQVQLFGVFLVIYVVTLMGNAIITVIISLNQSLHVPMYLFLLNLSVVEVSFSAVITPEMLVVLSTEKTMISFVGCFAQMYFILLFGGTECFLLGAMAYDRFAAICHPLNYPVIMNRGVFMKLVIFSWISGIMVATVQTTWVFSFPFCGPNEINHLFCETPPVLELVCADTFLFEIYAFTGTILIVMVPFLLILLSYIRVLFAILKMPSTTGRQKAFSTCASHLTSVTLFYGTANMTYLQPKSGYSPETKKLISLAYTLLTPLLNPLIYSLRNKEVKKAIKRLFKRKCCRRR
Protocol: as §1

OR2J2 = target: T3, OR2J2 (Homo sapiens, UniProt O76002, A146V/A218T/A302I/G300K/H297E/H74Y); assay: Dose-response test of single lactones on OR2J2
T3 construct: expressed in transfected cells; transient transfection of pcDNA3.1(+) OR plasmid
T3 sequence (O76002 with tags, fused parts or gaps H74Y/A146V/A218T/H297E/G300K/A302I limits assumed): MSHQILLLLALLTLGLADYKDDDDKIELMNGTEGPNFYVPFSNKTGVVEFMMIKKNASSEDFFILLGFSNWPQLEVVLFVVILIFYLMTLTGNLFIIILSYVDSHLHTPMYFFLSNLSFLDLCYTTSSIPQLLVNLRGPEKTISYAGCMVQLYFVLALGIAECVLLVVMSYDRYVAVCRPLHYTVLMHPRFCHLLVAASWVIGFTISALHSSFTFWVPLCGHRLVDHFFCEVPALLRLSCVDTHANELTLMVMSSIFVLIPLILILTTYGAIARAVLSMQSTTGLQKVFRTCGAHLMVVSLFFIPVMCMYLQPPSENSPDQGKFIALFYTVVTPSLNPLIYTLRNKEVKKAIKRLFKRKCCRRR
Protocol: as §1

OR10J1(M51I, I92M) = target: T4, OR10J1(M51I, I92M) (Homo sapiens, UniProt P30954, I103M/M62I); assay: Dose-response test of single lactones on OR10J1(M51I, I92M)
T4 construct: expressed in transfected cells; transient transfection of pcDNA3.1(+) OR plasmid
T4 sequence (P30954 with tags, fused parts or gaps M62I/I103M): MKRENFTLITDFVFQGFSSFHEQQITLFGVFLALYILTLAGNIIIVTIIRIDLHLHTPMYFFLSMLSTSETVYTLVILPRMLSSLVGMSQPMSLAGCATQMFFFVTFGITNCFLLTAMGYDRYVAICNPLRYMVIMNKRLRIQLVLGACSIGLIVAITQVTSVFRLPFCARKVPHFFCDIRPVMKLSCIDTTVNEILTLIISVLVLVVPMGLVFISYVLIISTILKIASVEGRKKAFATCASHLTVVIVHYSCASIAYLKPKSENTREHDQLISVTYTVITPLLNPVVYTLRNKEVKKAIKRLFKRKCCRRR
Protocol: as §1

[1] = target: T5, OR10A6(A117V, V140G, L287P) (Homo sapiens, UniProt Q8NH74, A117V/L287P/V140G); assay: Dose-response test of single lactones on OR10A6(A117V, V140G, L287P)
T5 construct: expressed in transfected cells; transient transfection of pcDNA3.1(+) OR plasmid
T5 sequence (Q8NH74 with tags, fused parts or gaps A117V/V140G/L287P limits assumed): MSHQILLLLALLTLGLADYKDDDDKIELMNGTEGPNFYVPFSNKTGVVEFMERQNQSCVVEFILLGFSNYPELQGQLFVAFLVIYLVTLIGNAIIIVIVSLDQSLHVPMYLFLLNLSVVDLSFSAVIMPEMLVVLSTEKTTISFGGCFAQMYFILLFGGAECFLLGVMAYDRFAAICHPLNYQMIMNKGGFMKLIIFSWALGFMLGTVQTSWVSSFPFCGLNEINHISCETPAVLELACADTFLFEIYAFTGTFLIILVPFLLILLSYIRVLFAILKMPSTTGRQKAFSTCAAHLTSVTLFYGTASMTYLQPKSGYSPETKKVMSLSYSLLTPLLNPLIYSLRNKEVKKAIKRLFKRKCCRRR
Protocol: as §1

OR56A4 = target: T6, OR56A4 (Homo sapiens, UniProt Q8NGH8, T299N); assay: cell-based; conditions: wild-type OR56A4
T6 construct: Improved functional expression of modified OR-genes containing the truncated, optimized C-terminus; expressed in transfected cells; host or cells: HEK293T stably expressing human RTP1S(V227I) and RTP2(L220R)
T6 sequence (Q8NGH8 with tags, fused parts or gaps T299N): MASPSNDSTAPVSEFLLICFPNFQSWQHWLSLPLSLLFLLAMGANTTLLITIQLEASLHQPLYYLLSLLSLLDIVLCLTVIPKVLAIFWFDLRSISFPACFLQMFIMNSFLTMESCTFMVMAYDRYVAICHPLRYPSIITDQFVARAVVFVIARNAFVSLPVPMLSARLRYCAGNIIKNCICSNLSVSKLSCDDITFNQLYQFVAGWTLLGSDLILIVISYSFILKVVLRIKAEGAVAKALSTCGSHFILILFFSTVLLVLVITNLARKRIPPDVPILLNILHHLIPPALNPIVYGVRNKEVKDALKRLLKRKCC
Protocol: Activation of OR56A4 by acids of different chain length was further tested. […] Replacing the wild-type with the C-terminal sequence of the functional OR51E1 did reduce activity. However, using the optimized sequence form Examples 1-5 led to a strong signal and much lower detection threshold upon addition of all three acids.
These two improvements were further combined and the combination was tested on OR52A5 and two further class I receptors. […] In the case of OR52A4, 4-ethyloctanoic acid, which is detected at low concentrations by the human nose, is detected with a high luciferase response already at 0.19 μM by the receptor with the C-terminal modification showing very sensitive detection of this carboxylic acid by the modified class I receptor.

OR10H5 = target: T7, OR10H5 (Homo sapiens, UniProt Q8NGA6); assay: CRE-luciferase assay, HEK293T cells expressing OR10H5 (wild-type / modified C-terminus)
T7 construct: Improved functional expression of modified OR-genes containing the truncated, optimized C-terminus; expressed in transfected cells; host or cells: HEK293T stably expressing human RTP1S(V227I) and RTP2(L220R)
T7 sequence (Q8NGA6 with tags, fused parts or gaps): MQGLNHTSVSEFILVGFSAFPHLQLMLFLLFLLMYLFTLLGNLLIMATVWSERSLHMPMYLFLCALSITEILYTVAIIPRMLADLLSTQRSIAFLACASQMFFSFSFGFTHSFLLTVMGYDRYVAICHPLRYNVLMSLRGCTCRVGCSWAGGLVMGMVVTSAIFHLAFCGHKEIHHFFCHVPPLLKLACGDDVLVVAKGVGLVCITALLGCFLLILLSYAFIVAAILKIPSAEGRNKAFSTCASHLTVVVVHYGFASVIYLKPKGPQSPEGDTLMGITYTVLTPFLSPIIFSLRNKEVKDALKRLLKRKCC
Source text: All tested receptors of Table 1 gave improved functional expression when the wild-type C-terminal domain was replaced with SEQ ID NO: 86. This functional expression was further improved when SEQ ID NO:86 was replaced with SEQ ID NO: 221 as shown for OR7C1 in Table 8 and for OR5B12 in Table 9. This additive improvement was further tested with OR10H5 (Table 18) and OR7A17 (Table 19). […] The full DNA sequences encoding the modified receptors are SEQ ID NO: 684 for OR10H5 and SEQ ID NO: 611 for OR7A17.

activation of the wild-type (OR56A4) | Structure (SMILES) | EC2 (concentration for 2-fold luciferase induction) (OR2AP1) [µM] | EC10, concentration for 10-fold OR activation (OR10A3) [μM] | EC2 (concentration for 2-fold luciferase induction) (OR2J2) | EC2 (concentration for 2-fold luciferase induction) (OR10J1(M51I, I92M)) [µM] | EC2 (concentration for 2-fold luciferase induction) [1] [µM] | Comments on efficacy (OR10H5) | Detection threshold; concentration for 2-fold induction (OR10H5; changed C-term. SEQ ID NO: 86) [µM] | Fold-improvement threshold (OR10H5; changed C-term. vs wild-type) | Fold-improvement potency (OR10H5; changed C-term. vs wild-type, higher EC50 due to much higher efficacy of optimized C-terminus) | Detection threshold; concentration for 2-fold induction (OR10H5; wild-type) [µM]
 | CCCCCCCC1CCC(=O)O1 (centres unmarked) [Undecalactone gamma] | 6.53 | 0.28 | 0.71 µM | 2.11 | 0.34 |  |  |  |  | 
 | CCCCCC1CCC(=O)O1 (centres unmarked) [Nonalactone gamma] |  | 2.83 | 12.85 µM | 11.14 | 11.34 |  |  |  |  | 
activated at high concentration | CCCCCCCCCC(=O)O [decanoic acid] |  |  |  |  |  |  |  |  |  | 
 | CCCCCCC1CCC(=O)O1 (centres unmarked) [Decalactone gamma] | 33.66 | 0.84 | 3.27 µM | 3.63 | 1.62 |  |  |  |  | 
 | Cc1ccc2c(c1)OCC(=O)CO2 [Calone] |  |  |  |  |  | 3-fold lower | 24.3 | 2.5 | 0.7 * | 60.1
 | CC1=CCC(C(C)CC2CCCC2=O)CC1 (centres unmarked) [Nectaryl] | 19.72 | 2.32 | inactive |  | 1.12 |  |  |  |  | 
 | CCCCCCCC1CCCC(=O)O1 (centres unmarked) [Dodecalactone delta] | 15.76 | 2.59 | 35.12 µM | 31.38 | 1.11 |  |  |  |  | 
